Assay results reported in patent US12583858B2 (Genentech, Inc., priority 2015, dated 2026).

Biological target: T1, TDO2 (Homo sapiens, UniProt P48775)
T1 construct: decreased levels of NFK in SW48 cells (high TDO expressing cells)
Test: TDO2 cell assay (NFK GreenScreen, SW48 cells)
Format: cell-based
Settings: SW48 cells (high TDO expressing), 200 uM tryptophan, 24 hours; Table 3; read-out: TDO2 Cell Fluor EC50

T1 sequence (P48775 whole entry): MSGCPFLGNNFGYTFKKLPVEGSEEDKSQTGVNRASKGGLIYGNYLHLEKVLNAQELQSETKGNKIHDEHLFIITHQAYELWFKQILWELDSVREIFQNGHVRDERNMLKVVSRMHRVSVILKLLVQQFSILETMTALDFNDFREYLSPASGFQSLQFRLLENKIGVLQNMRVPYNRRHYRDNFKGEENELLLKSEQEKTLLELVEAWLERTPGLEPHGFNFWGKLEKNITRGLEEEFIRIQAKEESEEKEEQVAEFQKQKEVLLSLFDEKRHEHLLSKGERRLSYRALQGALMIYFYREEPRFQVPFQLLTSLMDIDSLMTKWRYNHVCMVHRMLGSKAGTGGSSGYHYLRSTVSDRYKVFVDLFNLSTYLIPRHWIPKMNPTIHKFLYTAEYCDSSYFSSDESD

Question: `CC(C)(C)OC(=O)N1CC2(CC(C3c4ccccc4-c4cncn43)C2O)C1` (single isomer, unassigned) [Example 41h, tert-butyl 7-hydroxy-6-(5H-imidazo[1,5-b]isoindol-5-yl)-2-azaspiro[3.3]heptane-2-carboxylate] was tested. Which EC50 did it give?
Answer: Its EC50 is 750 nM.

Question: Which EC50 does the source give for `OC1(C2c3ccccc3-c3cncn32)CCC1` (single isomer, unassigned) [Example 47a] here?
Answer: The EC50 was 350 nM.

Question: How did the EC50 turn out when `OC1(C2c3ccccc3-c3cncn32)CCC1` (single isomer, unassigned) [Example 47b] was run?
Answer: The EC50 was over 25000 nM.

Question: Which EC50 does the source give for `OCC(O)C1c2ccccc2-c2cncn21` (single isomer, unassigned) [Example 49a, 1-(5H-imidazo[5,1-a]isoindol-5-yl)ethane-1,2-diol] here?
Answer: The EC50 was 18000 nM.

Question: `OCC(O)C1c2ccccc2-c2cncn21` (single isomer, unassigned) [Example 49b, 1-(5H-imidazo[5,1-a]isoindol-5-yl)ethane-1,2-diol] was tested. Which EC50 did it give?
Answer: Its EC50 is 19600 nM.

Question: `OCC(O)C1c2ccccc2-c2cncn21` (single isomer, unassigned) [Example 49c, 1-(5H-imidazo[5,1-a]isoindol-5-yl)ethane-1,2-diol] was tested. Which EC50 did it give?
Answer: Its EC50 is over 25000 nM.

Question: `OCC(O)C1c2ccccc2-c2cncn21` (single isomer, unassigned) [Example 49d, 1-(5H-imidazo[5,1-a]isoindol-5-yl)ethane-1,2-diol] was tested. Which EC50 did it give?
Answer: Its EC50 is 1440 nM.

Question: With `CC(C)C(O)C1c2ccccc2-c2cncn21` (single isomer, unassigned) [Example 51a] as the compound, how does the EC50 read?
Answer: Its EC50 is over 25000 nM.

Question: `CC(C)C(O)C1c2ccccc2-c2cncn21` (single isomer, unassigned) [Example 51b] was tested. Which EC50 did it give?
Answer: Its EC50 is over 25000 nM.

Question: Which EC50 does the source give for `CC(C)C(O)C1c2ccccc2-c2cncn21` (single isomer, unassigned) [Example 51c] here?
Answer: Its EC50 is 110 nM.

Question: How did the EC50 turn out when `CC(C)C(O)C1c2ccccc2-c2cncn21` (single isomer, unassigned) [Example 51d] was run?
Answer: The EC50 was 14000 nM.

Question: `OC(C1CC1)C1c2ccccc2-c2cncn21` (single isomer, unassigned) [Example 52a] was tested. Which EC50 did it give?
Answer: The EC50 was 240 nM.

Question: `OC(C1CC1)C1c2ccccc2-c2cncn21` (single isomer, unassigned) [Example 52b] was tested. Which EC50 did it give?
Answer: The EC50 was 23700 nM.

Question: How did the EC50 turn out when `OC(C1CC1)C1c2ccccc2-c2cncn21` (single isomer, unassigned) [Example 52c] was run?
Answer: The EC50 was over 25000 nM.

Question: Which EC50 does the source give for `OC(C1CC1)C1c2ccccc2-c2cncn21` (single isomer, unassigned) [Example 52d] here?
Answer: Its EC50 is 2000 nM.

Question: `OC1c2ccnn2CCC1C1c2ccccc2-c2cncn21` (single isomer, unassigned) [Example 56b] was tested. Which EC50 did it give?
Answer: The EC50 was 370 nM.

Question: How did the EC50 turn out when `OC1c2ccnn2CCC1C1c2ccccc2-c2cncn21` (single isomer, unassigned) [Example 56f] was run?
Answer: Its EC50 is 3800 nM.

Question: For `OC1c2ccnn2CCC1C1c2ccccc2-c2cncn21` (single isomer, unassigned) [Example 56g], which EC50 is on record?
Answer: The EC50 was over 25000 nM.

Question: With `OC1C(C2c3ccccc3-c3cncn32)CC12CCOCC2` (single isomer, unassigned) [Example 57b] as the compound, how does the EC50 read?
Answer: The EC50 was 5000 nM.

Question: With `OC1C(C2c3ccccc3-c3cncn32)CC12CCOCC2` (single isomer, unassigned) [Example 57c] as the compound, how does the EC50 read?
Answer: The EC50 was 400 nM.

Question: How did the EC50 turn out when `OC1C(C2c3ccccc3-c3cncn32)CC12CCOCC2` (single isomer, unassigned) [Example 57d] was run?
Answer: The EC50 was over 25000 nM.

Question: For `OC1C(C2c3ccccc3-c3cncn32)CC12CCOCC2` (single isomer, unassigned) [Example 57e], which EC50 is on record?
Answer: The EC50 was 77 nM.

Question: With `OC1C(C2c3ccccc3-c3cncn32)CC12CCOCC2` (single isomer, unassigned) [Example 57f] as the compound, how does the EC50 read?
Answer: Its EC50 is 730 nM.

Question: With `OC1C(C2c3ccccc3-c3cncn32)CC12CCOCC2` (single isomer, unassigned) [Example 57g] as the compound, how does the EC50 read?
Answer: The EC50 was 210 nM.

Question: Which EC50 does the source give for `OC1C(C2c3ccccc3-c3cncn32)CC12CCOCC2` (single isomer, unassigned) [Example 57h] here?
Answer: The EC50 was over 25000 nM.

Question: `N#CCN1CCC(O)C(C2c3ccccc3-c3cncn32)C1` (single isomer, unassigned) [Example 58a] was tested. Which EC50 did it give?
Answer: Its EC50 is 360 nM.

Question: How did the EC50 turn out when `N#CCN1CCC(O)C(C2c3ccccc3-c3cncn32)C1` (single isomer, unassigned) [Example 58b] was run?
Answer: Its EC50 is over 25000 nM.

Question: `N#CCN1CCC(O)C(C2c3ccccc3-c3cncn32)C1` (single isomer, unassigned) [Example 58c] was tested. Which EC50 did it give?
Answer: The EC50 was 20000 nM.

Question: With `N#CCN1CCC(O)C(C2c3ccccc3-c3cncn32)C1` (single isomer, unassigned) [Example 58d] as the compound, how does the EC50 read?
Answer: The EC50 was over 25000 nM.

Question: Which EC50 does the source give for `Cc1cc2c(cn1)C(O)C(C1c3ccccc3-c3cncn31)C2` (single isomer, unassigned) [Example 59c] here?
Answer: The EC50 was 1600 nM.

Question: Which EC50 does the source give for `Cc1cc2c(cn1)C(O)C(C1c3ccccc3-c3cncn31)C2` (single isomer, unassigned) [Example 59d] here?
Answer: The EC50 was over 25000 nM.

Question: For `NC(=O)c1ccc2c(c1)CCC(C1c3ccccc3-c3cncn31)C2O` (single isomer, unassigned) [Example 60a], which EC50 is on record?
Answer: The EC50 was 480 nM.

Question: With `NC(=O)c1ccc2c(c1)CCC(C1c3ccccc3-c3cncn31)C2O` (single isomer, unassigned) [Example 60b] as the compound, how does the EC50 read?
Answer: The EC50 was 4100 nM.

Question: Which EC50 does the source give for `NC(=O)c1ccc2c(c1)CCC(C1c3ccccc3-c3cncn31)C2O` (single isomer, unassigned) [Example 60d] here?
Answer: The EC50 was 740 nM.

Question: For `CC1(O)CCOCC1C1c2ccccc2-c2cncn21` (single isomer, unassigned) [Example 61a], which EC50 is on record?
Answer: Its EC50 is 570 nM.

Question: How did the EC50 turn out when `CC1(O)CCOCC1C1c2ccccc2-c2cncn21` (single isomer, unassigned) [Example 61b] was run?
Answer: Its EC50 is 2600 nM.

Question: With `CC1(O)CCOCC1C1c2ccccc2-c2cncn21` (single isomer, unassigned) [Example 61c] as the compound, how does the EC50 read?
Answer: Its EC50 is 9100 nM.

Question: With `CC1(O)CCOCC1C1c2ccccc2-c2cncn21` (single isomer, unassigned) [Example 61d] as the compound, how does the EC50 read?
Answer: Its EC50 is 21000 nM.

Question: `N#Cc1ccc2c(c1)CCC(C1c3ccccc3-c3cncn31)C2O` (single isomer, unassigned) [Example 62a] was tested. Which EC50 did it give?
Answer: The EC50 was 10000 nM.

Question: How did the EC50 turn out when `N#Cc1ccc2c(c1)CCC(C1c3ccccc3-c3cncn31)C2O` (single isomer, unassigned) [Example 62b] was run?
Answer: The EC50 was 310 nM.

Question: `N#Cc1ccc2c(c1)CCC(C1c3ccccc3-c3cncn31)C2O` (single isomer, unassigned) [Example 62c] was tested. Which EC50 did it give?
Answer: The EC50 was 6600 nM.

Question: For `N#Cc1ccc2c(c1)CCC(C1c3ccccc3-c3cncn31)C2O` (single isomer, unassigned) [Example 62d], which EC50 is on record?
Answer: The EC50 was 82 nM.

Question: Which EC50 does the source give for `N#Cc1ccc2c(c1)CCC(C1c3ccccc3-c3cncn31)C2O` (single isomer, unassigned) [Example 62e] here?
Answer: The EC50 was 520 nM.

Question: `N#Cc1ccc2c(c1)CCC(C1c3ccccc3-c3cncn31)C2O` (single isomer, unassigned) [Example 62f] was tested. Which EC50 did it give?
Answer: The EC50 was 2500 nM.

Question: `N#Cc1ccc2c(c1)CCC(C1c3ccccc3-c3cncn31)C2O` (single isomer, unassigned) [Example 62g] was tested. Which EC50 did it give?
Answer: Its EC50 is 14000 nM.

Question: Which EC50 does the source give for `OC1c2ncccc2CCC1C1c2ccccc2-c2cncn21` (single isomer, unassigned) [Example 63b] here?
Answer: Its EC50 is 19000 nM.

Question: For `CS(=O)(=O)N1CC[C@@H]([C@@H]2c3ccccc3-c3cncn32)[C@H](O)C1` (single isomer, unassigned) [Example 64b], which EC50 is on record?
Answer: The EC50 was 87 nM.

Question: `CS(=O)(=O)N1CC[C@@H]([C@H]2c3ccccc3-c3cncn32)[C@H](O)C1` (single isomer, unassigned) [Example 64d] was tested. Which EC50 did it give?
Answer: Its EC50 is 2500 nM.

Question: `CC1(C)COCC(C2c3ccccc3-c3cncn32)C1O` (single isomer, unassigned) [Example 66b] was tested. Which EC50 did it give?
Answer: Its EC50 is 190 nM.

Question: For `CC1(C)COCC(C2c3ccccc3-c3cncn32)C1O` (single isomer, unassigned) [Example 66c], which EC50 is on record?
Answer: Its EC50 is 4800 nM.

Question: `CC1(C)COCC(C2c3ccccc3-c3cncn32)C1O` (single isomer, unassigned) [Example 66d] was tested. Which EC50 did it give?
Answer: Its EC50 is 2000 nM.

Question: How did the EC50 turn out when `CC1(C)COCC(C2c3ccccc3-c3cncn32)C1O` (single isomer, unassigned) [Example 66f] was run?
Answer: Its EC50 is 160 nM.

Question: With `CC1(C)COCC(C2c3ccccc3-c3cncn32)C1O` (single isomer, unassigned) [Example 66g] as the compound, how does the EC50 read?
Answer: The EC50 was 71 nM.

Question: With `OC1CC2(CCC2)C1C1c2ccccc2-c2cncn21` (single isomer, unassigned) [Example 67a] as the compound, how does the EC50 read?
Answer: Its EC50 is 1200 nM.

Question: For `OC1CC2(CCC2)C1C1c2ccccc2-c2cncn21` (single isomer, unassigned) [Example 67b], which EC50 is on record?
Answer: The EC50 was over 25000 nM.

Question: With `OC1CC2(CCC2)C1C1c2ccccc2-c2cncn21` (single isomer, unassigned) [Example 67c] as the compound, how does the EC50 read?
Answer: The EC50 was 1100 nM.

Question: `OC1CC2(CCC2)C1C1c2ccccc2-c2cncn21` (single isomer, unassigned) [Example 67d] was tested. Which EC50 did it give?
Answer: Its EC50 is 240 nM.

Question: For `OC1CC2(CCC2)C1C1c2ccccc2-c2cncn21` (single isomer, unassigned) [Example 67e], which EC50 is on record?
Answer: The EC50 was 44 nM.

Question: How did the EC50 turn out when `OC1CC2(CCC2)C1C1c2ccccc2-c2cncn21` (single isomer, unassigned) [Example 67f] was run?
Answer: Its EC50 is 46 nM.

Question: Which EC50 does the source give for `OC1CC2(CCC2)C1C1c2ccccc2-c2cncn21` (single isomer, unassigned) [Example 67g] here?
Answer: Its EC50 is 2400 nM.

Question: Which EC50 does the source give for `OC1CC2(CCC2)C1C1c2ccccc2-c2cncn21` (single isomer, unassigned) [Example 67h] here?
Answer: Its EC50 is 16000 nM.

Question: How did the EC50 turn out when `OC1C(C2c3ccccc3-c3cncn32)CCC12CCOCC2` (single isomer, unassigned) [Example 68b] was run?
Answer: Its EC50 is 7400 nM.

Question: Which EC50 does the source give for `OC1C(C2c3ccccc3-c3cncn32)CCC12CCOCC2` (single isomer, unassigned) [Example 68c] here?
Answer: Its EC50 is over 25000 nM.

Question: `OC1C(C2c3ccccc3-c3cncn32)CCC12CCOCC2` (single isomer, unassigned) [Example 68d] was tested. Which EC50 did it give?
Answer: The EC50 was over 25000 nM.

Question: How did the EC50 turn out when `OC1C(C2c3ccccc3-c3cncn32)CCC12CCOCC2` (single isomer, unassigned) [Example 68e] was run?
Answer: The EC50 was 270 nM.

Question: With `OC1C(C2c3ccccc3-c3cncn32)CCC12CCOCC2` (single isomer, unassigned) [Example 68f] as the compound, how does the EC50 read?
Answer: Its EC50 is 120 nM.

Question: Which EC50 does the source give for `OC1C(C2c3ccccc3-c3cncn32)CCC12CCOCC2` (single isomer, unassigned) [Example 68g] here?
Answer: The EC50 was over 25000 nM.

Question: How did the EC50 turn out when `OC1C(C2c3ccccc3-c3cncn32)CCC12CCOCC2` (single isomer, unassigned) [Example 68h] was run?
Answer: The EC50 was over 25000 nM.

Question: For `OC1COCCC1C1c2c(Cl)cccc2-c2cncn21` (single isomer, unassigned) [Example 69-1a], which EC50 is on record?
Answer: Its EC50 is over 25000 nM.
